Test results as given in the supplement of paper PMC11061612.

Key:
Test in all cases: Bliss excess, mean over the matrix (fraction); higher = more synergy
[1] = tested on: KYSE-520 (Esophageal Squamous Cell Carcinoma)
Method in brief: (§1)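 Cell lines in DMEM/F12 or RPMI with 10% FBS were plated in 1536-well plates, held 24 hours at 37°C, 5% CO2, then given two-drug dose matrices for 72 hours (DMSO typically 0.2%). Viability was read by CellTiter-Glo 2.0 luminescence and scaled as inhibition from 0 (vehicle wells) to 1 (blank wells). Combination Emax is the second-highest inhibition in the matrix; Bliss excess is observed combination effect minus expected EA + EB − EA·EB, EA and EB being single-agent effects.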

[2] = tested on: NCI-H82 (Small Cell Lung Carcinoma)
Method in brief: as §1

[3] = tested on: OVCA420 (Ovarian Carcinoma)
Method in brief: as §1

[4] = tested on: Hs-578-T (Breast Carcinoma)
Method in brief: as §1

[5] = tested on: EC-GI-10 (Esophageal Squamous Cell Carcinoma)
Method in brief: as §1

HOS (Osteosarcoma) = tested on: HOS (Osteosarcoma)
Method in brief: as §1

[6] = tested on: TCCSUP (Bladder Carcinoma)
Method in brief: as §1

[7] = tested on: RO82-W-1 (Thyroid Gland Carcinoma)
Method in brief: as §1

[8] = tested on: LNCaP-Clone-FGC (Prostate Carcinoma)
Method in brief: as §1

NB10 (Neuroblastoma) = tested on: NB10 (Neuroblastoma)
Method in brief: as §1

[9] = tested on: KURAMOCHI (Ovarian Carcinoma)
Method in brief: as §1

[10] = tested on: HT-1376 (Bladder Carcinoma)
Method in brief: as §1

[11] = tested on: DoTc2-4510 (Cervical Carcinoma)
Method in brief: as §1

[12] = tested on: HCC-78 (Lung Adenocarcinoma)
Method in brief: as §1

[13] = tested on: LS-180 (Colorectal Carcinoma)
Method in brief: as §1

[14] = tested on: HO-1-N-1 (Oral Cavity Carcinoma)
Method in brief: as §1

[15] = tested on: HCC1806 (Breast Carcinoma)
Method in brief: as §1

[16] = tested on: CAL-148 (Breast Carcinoma)
Method in brief: as §1

[17] = tested on: COLO-205 (Colorectal Carcinoma)
Method in brief: as §1

[18] = tested on: KP-1N (Pancreatic Carcinoma)
Method in brief: as §1

| SMILES | Bliss excess [1] | Bliss excess [2] | Bliss excess [3] | Bliss excess [4] | Bliss excess [5] | Bliss excess (HOS (Osteosarcoma)) | Bliss excess [6] | Bliss excess [7] | Bliss excess [8] | Bliss excess (NB10 (Neuroblastoma)) | Bliss excess [9] | Bliss excess [10] | Bliss excess [11] | Bliss excess [12] | Bliss excess [13] | Bliss excess [14] | Bliss excess [15] | Bliss excess [16] | Bliss excess [17] | Bliss excess [18] |
| --- | --- | --- | --- | --- | --- | --- | --- | --- | --- | --- | --- | --- | --- | --- | --- | --- | --- | --- | --- | --- |
| COc1cccc(OCCCN)c1-c1cc(Nc2cnc(C#N)cn2)n[nH]1 [Prexasertib] + CN(C)CCCOc1ccc(-c2ccc3ncc4c(c3c2)n(C2CCOCC2)c(=O)n4C)cn1 [AZD0156] (first compound max 1 µM, 7x7, partner max 1 µM) | -0.0211 | 0.0117 | -0.0279 | 0.0101 | -0.0056 | -0.0434 | -0.0021 | -0.0684 | -0.0374 | 0.015 | -0.0425 | -0.007 | -0.0208 | -0.0463 | -0.0605 | -0.0077 | -0.0262 | -0.0115 | 0.061 | 0.0236 |
| COc1cccc(OCCCN)c1-c1cc(Nc2cnc(C#N)cn2)n[nH]1 [Prexasertib] + C[C@@H]1COCCN1C2=NC(=NC(=C2)C3(CC3)[S@](=N)(=O)C)C4=C5C=CNC5=NC=C4 [AZD6738] (first compound max 1 µM, 7x7, partner max 10 µM) | -0.0696 | -0.0186 | -0.0214 | -0.0779 | 0.0193 | 0.0261 | -0.0245 | 0.005 | -0.0427 | -0.0145 | -0.0707 | -0.0105 | -0.0218 | 0.0318 | 0.0194 | 0.0115 | -0.0472 | 0.0988 | 0.0369 | 0.0331 |
| COc1cccc(OCCCN)c1-c1cc(Nc2cnc(C#N)cn2)n[nH]1 [Prexasertib] + Cc1cc2ncnn2cc1Nc1ncc2c(n1)n(C1CCOCC1)c(=O)n2C [AZD7648] (first compound max 1 µM, 7x7, partner max 10 µM) | -0.0177 | -0.0355 | -0.0002 | -0.0453 | -0.0144 | -0.0393 | -0.0182 | -0.058 | -0.0617 | -0.0407 | -0.0628 | -0.0373 | 0.0159 | -0.0841 | -0.0329 | 0.0096 | -0.0193 | 0.0235 | 0.0227 | -0.0207 |
| COc1cccc(OCCCN)c1-c1cc(Nc2cnc(C#N)cn2)n[nH]1 [Prexasertib] + O=C(c1cc(Cc2n[nH]c(=O)c3ccccc23)ccc1F)N1CCN(C(=O)C2CC2)CC1 [Olaparib] (first compound max 1 µM, 7x7, partner max 10 µM) | -0.111 | -0.0735 | -0.0374 | -0.0324 | -0.0253 | -0.0168 | -0.006 | -0.0731 | -0.049 | -0.0272 | -0.0891 | -0.0976 | -0.0041 | -0.0733 | -0.0348 | 0.0205 | -0.0284 | -0.0507 | -0.0301 | 0.0018 |
| COc1cc2c(cc1OCCCCCOc1cc3c(cc1OC)C(=O)N1C=C(C)C[C@H]1C=N3)N=C[C@@H]1CC(C)=CN1C2=O [SG3199] + O=C(c1cc(Cc2n[nH]c(=O)c3ccccc23)ccc1F)N1CCN(C(=O)C2CC2)CC1 [Olaparib] (first compound max 0.001 µM, 7x7, partner max 10 µM) | -0.0137 | -0.0075 | -0.0268 | -0.0422 | -0.011 | -0.0232 | -0.0281 | -0.0704 | 0.0189 | -0.0067 | -0.0693 | -0.0503 | -0.0123 | -0.0294 | -0.0525 | -0.0138 | -0.0132 | -0.0294 | -0.0256 | 0.0163 |
| CCc1c2c(nc3ccc(O)cc13)-c1cc3c(c(=O)n1C2)COC(=O)[C@]3(O)CC [SN-38] + CN(C)CCCOc1ccc(-c2ccc3ncc4c(c3c2)n(C2CCOCC2)c(=O)n4C)cn1 [AZD0156] (first compound max 0.3 µM, 7x7, partner max 1 µM) | -0.0071 | 0.0287 | -0.008 | 0.169 | 0.0134 | 0.0114 | 0.0859 | -0.088 | -0.0804 | -0.0533 | 0.0421 | -0.0547 | 0.0091 | -0.0066 | 0.0439 | 0.0488 | -0.0222 | -0.0174 | 0.0073 | 0.0531 |
| C[C@@H](c1ccc2nccn2c1)n1nnc2ncc(-c3cnn(C)c3)nc21 [Savolitinib] + CC1(C)CCC(CN2CCN(c3ccc(C(=O)NS(=O)(=O)c4ccc(NCC5CCOCC5)c([N+](=O)[O-])c4)c(Oc4cnc5[nH]ccc5c4)c3)CC2)=C(c2ccc(Cl)cc2)C1 [Venetoclax] (first compound max 1 µM, 7x7, partner max 1 µM) | -0.0774 | -0.0467 | -0.0505 | -0.0363 | -0.0547 | -0.0243 | -0.0551 | -0.0371 | -0.0593 | -0.0389 | -0.0274 | -0.0443 | -0.0601 | -0.0514 | -0.0201 | -0.0105 | -0.0367 | -0.0359 | -0.0675 | -0.0646 |
| C[C@@H](c1ccc2nccn2c1)n1nnc2ncc(-c3cnn(C)c3)nc21 [Savolitinib] + Cc1c2c(nn1C)CSCc1cc(n(C)n1)CSc1cc(c3ccccc3c1)OCCCc1c(C(=O)O)n(C)c3c-2c(Cl)ccc13 [AZD5991] (first compound max 1 µM, 7x7, partner max 1 µM) | -0.0615 | -0.0763 | -0.0134 | -0.0137 | -0.07 | -0.0188 | -0.0262 | -0.0386 | -0.0148 | -0.0278 | -0.0332 | -0.0206 | -0.0204 | -0.0366 | -0.015 | -0.0373 | 0.0014 | 0.0087 | -0.0386 | -0.0637 |
| Cn1cnc2c(F)c(Nc3ccc(Br)cc3Cl)c(C(=O)NOCCO)cc21 [Selumetinib] + C=CCn1c(=O)c2cnc(Nc3ccc(N4CCN(C)CC4)cc3)nc2n1-c1cccc(C(C)(C)O)n1 [AZD1775] (first compound max 10 µM, partner max 1 µM) | 0.0054 | -0.106 | -0.0093 | -0.0423 | -0.0424 | -0.0713 | -0.0432 | -0.0769 | -0.15 | -0.0125 | 0.0427 | -0.0093 | -0.0164 | -0.0293 | -0.0585 | -0.0206 | 0.0042 | -0.0543 | -0.0256 | -0.0298 |
| Cn1cnc2c(F)c(Nc3ccc(Br)cc3Cl)c(C(=O)NOCCO)cc21 [Selumetinib] + CC(C)n1c(=O)n(C)c2cnc3cc(F)c(-c4ccc(OCCCN5CCCCC5)nc4)cc3c21 [AZD1390] (first compound max 10 µM, 7x7, partner max 0.3 µM) | -0.0115 | -0.0349 | 0.0018 | -0.0426 | -0.0359 | -0.0404 | -0.0588 | -0.034 | -0.0381 | -0.0323 | -0.055 | -0.0416 | -0.0401 | -0.0313 | -0.0519 | 0.0053 | -0.0029 | -0.0421 | -0.0209 | -0.0532 |
| Cn1cnc2c(F)c(Nc3ccc(Br)cc3Cl)c(C(=O)NOCCO)cc21 [Selumetinib] + CCN(CCO)CCCOc1ccc2c(Nc3cc(CC(=O)Nc4cccc(F)c4)[nH]n3)ncnc2c1 [AZD2811] (first compound max 10 µM, 7x7, partner max 1 µM) | 0.0547 | 0.0317 | 0.0471 | 0.0203 | 0.0087 | -0.0192 | -0.0822 | 0.0016 | 0.0253 | -0.0402 | -0.0203 | -0.0488 | -0.0098 | -0.0124 | -0.0541 | -0.0692 | -0.0063 | -0.029 | -0.0081 | -0.0461 |
| Cn1cnc2c(F)c(Nc3ccc(Br)cc3Cl)c(C(=O)NOCCO)cc21 [Selumetinib] + C[C@@H]1COCCN1C2=NC(=NC(=C2)C3(CC3)[S@](=N)(=O)C)C4=C5C=CNC5=NC=C4 [AZD6738] (first compound max 10 µM, 7x7, partner max 10 µM) | 0.0227 | -0.0337 | 0.078 | 0.009 | 0.0623 | -0.0613 | -0.0141 | -0.0242 | -0.0018 | -0.0247 | 0.0517 | -0.021 | -0.0282 | -0.0254 | -0.0516 | -0.0475 | 0.0496 | -0.0407 | 0.0526 | -0.0061 |
| CC(=O)Nc1cccc(-n2c(=O)n(C3CC3)c(=O)c3c(Nc4ccc(I)cc4F)n(C)c(=O)c(C)c32)c1 [Trametinib] + Cc1nc(-c2cn3c(n2)-c2ccc(-c4cnn(C(C)(C)C(N)=O)c4)cc2OCC3)n(C(C)C)n1 [Taselisib] (first compound max 1 µM, 7x7, partner max 10 µM) | 0.0534 | 0.0361 | 0.0806 | 0.0773 | 0.112 | 0.0604 | 0.0896 | 0.0426 | -0.0056 | 0.118 | 0.115 | 0.0546 | 0.143 | 0.0913 | 0.0957 | 0.268 | 0.257 | 0.0554 | 0.0229 | 0.101 |
